{"source": "patent US3959281A", "about": "“Piperazino substituted coumarin derivatives” (Cassella Farbwerke Mainkur Aktiengesellschaft, priority 1968, dated 1976)", "key": {"[1]": {"test": "LD 50 Mouse", "conditions": "in vivo, iv, dihydrochloride"}, "[2]": {"tested_on": "coronary vessels", "test": "vasodilator action on the coronary vessels: change in the oxygen tension in the coronary veinous blood (narcotized dogs, i.v.)", "format": "in vivo", "conditions": "dog, 0.5 mg./kg. i.v., dihydrochloride", "procedure": "(§1) With respect to the change in the oxygen tension in the coronary veinous blood, the pharmacological investigation of the vasodilator action on the coronary vessels was carried out in dogs according to the methods described by W.K.A. Schaper and his co-workers (see W.K.A. SCHAPER, R. XHONNEUX, and J.M. BOGAARD \"Ueber die kontinuierliche Messung des Sauerstoffdruckes im venoesen Coronarblut\" (Naunyn-Schmiedeberg's Arch. exp. Path. u. Pharmak. 245, 383-389 (1963)). The test preparations were applied intravenously to the narcotized and spontaneously breathing animals. On these test conditions the dilatation of the coronary arteries caused by the test substances along with the increase in the coronary blood flow led to an increase in the oxygen tension in the coronary veinous blood. This oxygen tension was measured according to polarographic methods by means of a platin electrode of the Gleichmann-Lubbers type (see U. GLEICHMANN and D.W. LUEBBERS \"Die Messung des Sauerstoffdruckes in Gasen and Fluessigkeiten mit der Platin-Elektrode unter besonderer Berucksichtigung der Messung im Blut,\" Pflugers Arch. 271, 431-455 (1960)). The heart rate was continuously measured by electronic methods from systolic peaks of the arterial blood pressure. The arterial blood pressure was measured in the known manner in the femoral artery with the aid of an electromanometer of the Statham-strain-gauge type.\n(§2) The following table gives the results of the pharmacological investigations which were carried through. The preparations were tested in the form of their respective dihydrochlorides: […]"}, "[3]": {"test": "heart rate, continuously measured from systolic peaks of the arterial blood pressure (narcotized dogs, i.v.)", "format": "in vivo", "conditions": "dog, 0.5 mg./kg. i.v., dihydrochloride", "procedure": "as §1, with “The arterial blood pressure was measured in the known manner in the femoral artery with the aid of an electromanometer of the Statham-strain-gauge type.” left out"}, "[4]": {"test": "arterial blood pressure in the femoral artery (narcotized dogs, i.v.)", "format": "in vivo", "conditions": "dog, 0.5 mg./kg. i.v., dihydrochloride", "procedure": "as §1, §2"}}, "data": [{"compound": "COc1cc(C(=O)OC(Cc2c(C)c3ccc(OC)c(OC)c3oc2=O)CN2CCN(CC(=O)Nc3c(C)cccc3C)CC2)cc(OC)c1OC", "note": "(stereo not drawn) [3-[γ-{N-(2,6-dimethyl-anilidocarbonylmethyl)-piperazino}-β-(3,4,5-trimethoxybenzoxy)-propyl]-4-methyl-7,8-dimethoxy-courmarin]", "values": [{"measurement": "LD50", "setting": "[1]", "result": "> 400", "unit": "mg/kg"}, {"measurement": "Maximal Increase in Oxygen Tension in the Coronary Veinous Blood", "setting": "[2]", "result": "+36%"}, {"measurement": "Maximal Increase in Oxygen Tension in the Coronary Veinous Blood", "setting": "[2]; duration", "result": "> 20", "unit": "min"}]}, {"compound": "COc1ccc(CN2CCN(CC(Cc3c(C)c4ccc(OC)c(OC)c4oc3=O)OC(=O)c3cc(OC)c(OC)c(OC)c3)CC2)cc1OC", "note": "(stereo not drawn) [3-[γ-(N-3,4-dimethoxy-benzyl-piperazino)-β-(3,4,5-trimethoxybenzoxy)-propyl]-4-methyl-7,8-dimethoxy-coumarin]", "values": [{"measurement": "Maximal Change in the Heart Rate", "setting": "[3]", "result": -20, "unit": "%"}, {"measurement": "Maximal Change in the Heart Rate", "setting": "[3]; duration", "result": "> 25", "unit": "min"}, {"measurement": "Maximal Change in the Blood Pressure (diastolic)", "setting": "[4]; diastolic", "result": -66, "unit": "%"}, {"measurement": "Maximal Change in the Blood Pressure", "setting": "[4]; duration", "result": "> 25", "unit": "min"}, {"measurement": "Maximal Change in the Blood Pressure (systolic)", "setting": "[4]; systolic", "result": -57, "unit": "%"}, {"measurement": "Maximal Increase in Oxygen Tension in the Coronary Veinous Blood", "setting": "[2]", "result": "+60%"}, {"measurement": "Maximal Increase in Oxygen Tension in the Coronary Veinous Blood", "setting": "[2]; duration", "result": "> 25", "unit": "min"}]}]}
